# Assay results reported in patent US10709704B2, “Treating neural disease with tyrosine kinase inhibitors” (GEORGETOWN UNIVERSITY, priority 2012, dated 2020).
# Test system: GFP-tagged TDP-43
# Assay: Distribution of GFP-tagged TDP-43 in M17 cells
# Assay type: cell-based, human
# Parameters: distribution of GFP-tagged TDP-43 / translocation of GFP-tagged TDP-43 with Nilotinib or Bosutinib: unit of the concentration uncertain
# Method: Human neuroblastoma M17 cells (seeding density 2×10^5 cells) were grown in 24 well dishes (Falcon) to 70% confluence in Dulbecco's Modified Eagle Medium (DMEM; Invitrogen) plus 10% (v/v) heat-inactivated fetal bovine serum (Invitrogen), penicillin/streptomycin, and 2 mM L-glutamine at 37° C. and 5% CO2, washed twice in phosphate-buffered saline (PBS). Transient transfection was performed with 3 μg parkin cDNA or 3 μg TDP-43 cDNA, or 3 μg LacZ cDNA. Cells were treated with 5 μM tubacin for 24 hours and DAPI stained in 12 well dishes. Cells were harvested 24 hours after transfection. Transfection was performed in DMEM without serum using Lipofectamine 2000 (Invitrogen) according to the manufacturer's protocol. […] Western blot was performed on NuPAGE 4-12% Bis-Tris gel (Invitrogen). Protein estimation was performed using the microscale BioRad protein assay (BioRad Laboratories Inc, Hercules, Calif., USA).
# To ascertain that both parkin and HDAC6 are required for TDP-43 translocation, GFP-tagged TDP-43 was expressed in M17 neuroblastoma cells in the presence of wild type or loss-of-function mutant (T240R) parkin, and treated with 5 μM selective HDAC6 inhibitor for 24 hours.
# The following data support these conclusions.
smiles,measurement,setting,value
O=C(CCCCCCC(=O)Nc1ccc([C@H]2O[C@@H](CSc3nc(-c4ccccc4)c(-c4ccccc4)o3)C[C@@H](c3ccc(CO)cc3)O2)cc1)NO [Tubacin],GFP fluorescence (GFP-TDP-43) in the cytosol,"5 μM for 24 hours, presence or absence of parkin",did not lead to GFP fluorescence in the cytosol
same,translocation of GFP-tagged TDP-43 with Nilotinib or Bosutinib,Tubacin (5 µM) for additional 24 hrs,impairs translocation
